In patent publication USRE47084E1, “Oral medicinal product with modified release of at least one active principle in multimicrocapsular form” (FLAMEL IRELAND LIMITED, priority 2003, dated 2018):
Converted amounts (≈) assume the structure as drawn.

test: Solubility of the active principles; type: physicochemical

solubility [µg/mL]	Compound
300 (≈ 1260 µM)	O=C1CN(/N=C/c2ccc([N+](=O)[O-])o2)C(=O)N1 [Nitrofurantoin]
50 (≈ 135 µM)	Cc1c(OCC(F)(F)F)ccnc1C[S+]([O-])c1nc2ccccc2[nH]1 (stereo not shown) [Lansoprazole]
10000 (≈ 44400 µM)	Nc1nc2c(ncn2COCCO)c(=O)[nH]1 [Acyclovir]
20 (≈ 48 µM)	CC(=O)S[C@@H]1CC2=CC(=O)CC[C@]2(C)[C@H]2CC[C@@]3(C)[C@@H](CC[C@@]34CCC(=O)O4)[C@H]12 [Spironolactone]
